Patent US8198279B2, “Pyrido[2,3-b]pyrazin-8-substituted compounds and their use” (Institute of Cancer Research: Royal Cancer Hospital (The), priority 2007, dated 2012)

Columns and labels:
B-RAF = molecular target: T1, B-RAF (Homo sapiens, UniProt P15056, V600E); assay: DELFIA Kinase Assay; format: biochemical; details: 100 μM ATP, GST-MEK substrate
T1 construct: made in house
In short: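 Recombinant B-RAF (V600E) with GST-MEK substrate was preincubated with compound for 10 min at room temperature, then reacted with 100 μM ATP for 45 min on milk-preblocked wells, with antibody detection by DELFIA europium fluorescence. Response is taken as % of DMSO control after empty-vector blank subtraction; IC50 is from a variable-slope sigmoidal fit, mean of usually three independent runs.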

pERK = assay: Cell Based Phospho-ERK Assay; details: 6 h, 6 hours incubation with test compound
Protocol: Biological Methods—Cell Based Phosho-ERK Assay
Compounds were assessed using a cell-based assay which was performed according to the following protocol.
Plate out 16,000 cells/well in 99 μL medium in a 96-well plate.
• 1. Add 1 μL inhibitor to the cells (total […] solution). • 2. Incubate the cells with test compound for 6 hours at 37° C. • 3. Aspirate off the solution from all of the wells. • 4. Fixate the cells with 100 μL 4% formaldehyde/0.25% Triton X-100 PBS per well. • 5. Incubate the plate for 1 hour at 4° C. • 6. Aspirate off the fixing solution and add 300 μL TBS per well. • 7. Leave the plate overnight at 4° C. Day 2: • 1. Wash the plate 2× with 200 μL PBS per well. • 2. Block with 100 μL 5% dried milk in TBS. • 3. Incubate the plate for 20 minutes at 37° C. • 4. Wash the plate 2× with 0.1% tween/H2O. • 5. Add 50 μL of 3 μg/mL primary antibody pERK (Sigma M8159), diluted in 5% milk powder/TBS, to each well. • 6. Incubate the plate for 2 hours at 37° C. • 7. Wash the plate 3× with 0.1% tween/H2O. • 8. Add 50 μL of 0.45 μg/mL secondary Europium-labelled anti-mouse antibody (Perkin Elmer) to each well. • 9. Incubate the plate for 1 hour at 37° C. • 10. Wash the plate 3× with 0.1% tween/H2O. • 11. Add 100 μL enhancement solution (Perkin Elmer) to each well. • 12. Leave the plate for approximately 10 minutes at room temperature before gently shaking the plate. • 13. Read Europium Time Resolved Fluorescence in Victor2. • 14. Wash the plate 2× with 0.1% tween/H2O. • 15. Measure the protein concentration with BCA (Sigma) by adding 200 μL of solution per well. • 16. Incubate the plate for 30 minutes at 37° C. • 17. Read absorbance levels at 570 nm in a plate reader.
Note that Europium counts are normalised for protein levels by dividing counts by absorbance.
Values for the blank (no cells) are subtracted from all values. The DMSO controls are set as 100% activity and assay points (the response) are calculated as a percentage of the DMSO control. Data are plotted using Graphpad Prism software and a non-linear regression line is calculated using a variable slope sigmoidal dose-response equation (Y=Bottom+(Top−Bottom)/(1+10^((LogEC50−X)*HillSlope)) where X is the logarithm of concentration. Y is the response). The IC50 generated by this procedure is the concentration of the drug that produces a percentage control fluorescence value midway between the saturation, and zero-effect plateaus. Three independent assays are usually performed and the mean IC50 is reported.

WM266.4 melanoma cells = assay: SRB Cell Proliferation Assay (SRB GI50); format: cell-based; details: Homo sapiens, WM 266-4, 144 h, 6 days growth
In short: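 WM266.4 cells (1000/well) grown 6 days with compound at 100 μM to 0.005 μM (3-fold dilutions) in DMEM/10% FBS at 37 °C. Cells TCA-fixed, sulphorhodamine-B stained, A540 read. GI50 is the concentration giving A540, as % of untreated control, midway between the plateaus.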

T1 sequence (P15056 whole entry V600E): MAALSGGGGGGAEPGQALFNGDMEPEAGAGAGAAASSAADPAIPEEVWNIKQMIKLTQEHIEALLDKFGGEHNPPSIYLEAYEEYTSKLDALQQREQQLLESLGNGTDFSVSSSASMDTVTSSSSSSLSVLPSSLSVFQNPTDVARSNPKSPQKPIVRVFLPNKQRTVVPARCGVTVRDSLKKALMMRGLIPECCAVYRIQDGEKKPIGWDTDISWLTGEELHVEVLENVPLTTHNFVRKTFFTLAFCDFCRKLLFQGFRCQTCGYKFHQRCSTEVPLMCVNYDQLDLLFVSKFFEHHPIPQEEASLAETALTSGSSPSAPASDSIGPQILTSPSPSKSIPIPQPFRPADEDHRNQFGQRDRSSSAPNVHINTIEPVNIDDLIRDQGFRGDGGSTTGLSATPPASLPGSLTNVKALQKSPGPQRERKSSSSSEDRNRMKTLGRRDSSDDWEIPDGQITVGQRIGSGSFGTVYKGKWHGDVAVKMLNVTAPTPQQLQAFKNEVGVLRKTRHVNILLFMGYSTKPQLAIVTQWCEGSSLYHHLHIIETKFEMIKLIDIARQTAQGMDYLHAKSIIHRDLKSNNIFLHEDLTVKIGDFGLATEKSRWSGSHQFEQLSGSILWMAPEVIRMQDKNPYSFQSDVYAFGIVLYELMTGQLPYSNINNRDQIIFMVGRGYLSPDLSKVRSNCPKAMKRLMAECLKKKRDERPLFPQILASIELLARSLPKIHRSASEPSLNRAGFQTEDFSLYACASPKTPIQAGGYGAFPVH

Compound | IC50 (B-RAF) [µM] | IC50 (pERK) [µM] | GI50 (WM266.4 melanoma cells) [µM]
Cc1ccc(-n2nc(C(C)(C)C)cc2NC(=O)Nc2ccc(Oc3ccnc4[nH]c(=O)cnc34)cc2F)cn1 [AA-084, 1-(3-tert-butyl-1-(6-methylpyridin-3-yl)-1H-pyrazol-5-yl)-3-(2-fluoro-4-(3-oxo-3,4-dihydropyrido[3,2-b]pyrazin-8-yloxy)phenyl)urea] | 0.1 to 1 | < 1 | < 1
O=C(Nc1ccc(Oc2ccnc3[nH]c(=O)cnc23)c(F)c1)Nc1cc(C(F)(F)F)ccc1F [AA-086, 1-(3-fluoro-4-(3-oxo-3,4-dihydropyrido[2,3-b]pyrazin-8-yloxy)phenyl)-3-(2-fluoro-5-(trifluoromethyl)phenyl)urea] | < 0.1 | 1 to 10 | 1 to 10
Cc1ccc(-n2nc(C(C)(C)C)cc2NC(=O)Nc2ccc(Oc3ccnc4[nH]c(=O)cnc34)c(F)c2)cc1 [AA-088, 1-(3-tert-butyl-1-p-tolyl-1H-pyrazol-5-yl)-3-(3-fluoro-4-(3-oxo-3,4-dihydropyrido[2,3-b]pyrazin-8-yloxy)phenyl)urea] | < 0.1 | < 1 | < 1
CC(C)(C)c1cc(NC(=O)Nc2ccc(Oc3ccnc4ncc(=O)[nH]c34)cc2F)n(-c2ccccc2)n1 [AA-089, 1-(3-tert-butyl-1-phenyl-1H-pyrazol-5-yl)-3-(2-fluoro-4-(2-oxo-1,2-dihydropyrido[3,2-b]pyrazin-8-yloxy)phenyl)urea] | 0.1 to 1 | < 1 | < 1
CC(C)(C)c1cc(NC(=O)Nc2ccc(Oc3ccnc4[nH]c(=O)cnc34)cc2F)n(-c2ccc(S(C)(=O)=O)cc2)n1 [AA-090, 1-(3-tert-butyl-1-(4-(methylsulfonyl)phenyl)-1H-pyrazol-5-yl)-3-(2-fluoro-4-(3-oxo-3,4-dihydropyrido[3,2-b]pyrazin-8-yloxy)phenyl)urea] | 0.1 to 1 | < 1 | < 1
CC(C)(C)c1cc(NC(=O)Nc2ccc(Oc3ccnc4[nH]c(=O)c(=O)[nH]c34)cc2F)n(-c2ccccc2)n1 [AA-091, 1-(3-Tert-butyl-1-phenyl-1H-pyrazol-5-yl)-3-(4-(2,3-dioxo-1,2,3,4-tetrahydropyrido[3,2-b]pyrazin-8-yloxy)-2-fluorophenyl)urea] | 0.1 to 1 | < 1 | < 1
CC(C)(C)c1cc(NC(=O)Nc2ccc(Oc3ccnc4[nH]c(=O)c(=O)[nH]c34)cc2F)n(-c2ccc(S(C)(=O)=O)cc2)n1 [AA-092, 1-(3-tert-butyl-1-(4-(methylsulfonyl)phenyl)-1H-pyrazol-5-yl)-3-(4-(2,3-dioxo-1,2,3,4-tetrahydropyrido[3,2-b]pyrazin-8-yloxy)-2-fluorophenyl)urea] | 0.1 to 1 | 1 to 10 | 1 to 10
O=C(Nc1ccc(Oc2ccnc3[nH]c(=O)cnc23)cc1F)Nc1cc(C(F)(F)F)ccc1Oc1cccnc1 [AA-093, 1-(2-fluoro-4-(3-oxo-3,4-dihydropyrido[3,2-b]pyrazin-8-yloxy)phenyl)-3-(2-(pyridin-3-yloxy)-5-(trifluoromethyl)phenyl)urea] | < 0.1 | < 1 | 1 to 10
O=C(Nc1ccc(Oc2ccnc3[nH]c(=O)cnc23)cc1F)Nc1cc(C(F)(F)F)ccc1-n1cccn1 [AA-094, 1-(2-(1H-pyrazol-1-yl)-5-(trifluoromethyl)phenyl)-3-(2-fluoro-4-(3-oxo-3,4-dihydropyrido[3,2-b]pyrazin-8-yloxy)phenyl)urea] | < 0.1 | < 1 | 1 to 10
C=CCn1nc(C(C)(C)C)cc1NC(=O)Nc1ccc(Oc2ccnc3[nH]c(=O)cnc23)cc1F [AA-095, 5-[(4-amino-2-fluorophenyl-oxy)carbonylamino-5-(1-N-allyl-3-t-butyl-imidazolyl)]-pyridin-[2, 3]-3-pyrazin-2-one] | < 0.1 | < 1 | 1 to 10
C#CCn1nc(C(C)(C)C)cc1NC(=O)Nc1ccc(Oc2ccnc3[nH]c(=O)cnc23)cc1F [AA-096] | < 0.1 | < 1 | 1 to 10
CC(C)(C)c1cc(NC(=O)Nc2ccc(Oc3ccnc4[nH]c(=O)cnc34)cc2F)n(CC2CC2)n1 [AA-097, 1-(3-Tert-butyl-1-(cyclopropylmethyl)-1H-pyrazol-5-yl)-3-(2-fluoro-4-(3-oxo-3,4-dihydropyrido[3,2-b]pyrazin-8-yloxy)phenyl)urea] | < 0.1 | < 1 | 1 to 10
COCn1nc(C(C)(C)C)cc1NC(=O)Nc1ccc(Oc2ccnc3[nH]c(=O)cnc23)cc1F [AA-098, 1-(3-Tert-butyl-1-(methoxymethyl)-1H-pyrazol-5-yl)-3-(2-fluoro-4-(3-oxo-3,4-dihydropyrido[3,2-b]pyrazin-8-yloxy)phenyl)urea] | < 0.1 | 1 to 10 | 1 to 10
